This is an account of results in patent US5712269A, “M2 receptor ligand for the treatment of neurological disorders” (Pharmaceutical Discovery Corporation, priority 1995, dated 1998).

The Ki is a dissociation constant, usually derived from enzyme kinetics or from competition with a known ligand. Read a low Ki as tighter binding.

“Also recorded” adds a separate entry of the source.

Data set [1] relates to mice. As to the kind of experiment: behavioral observation after intraperitoneal injection. The data set is classed as in vivo, mouse.
Data set [2] is described as follows: partition coefficient between 1-octanol and 0.1M phosphate. The data set is classed as physicochemical. The conditions noted are these: 1-octanol / 0.1M phosphate.
The test system of data set [3] is mice. As to the kind of experiment: Watermaze behavioral studies. Format: in vivo, mouse (male C57 BL/6). Particulars: 10 mg/kg intraperitoneally. An excerpt:
The following procedures are standard techniques routinely used by those skilled in the art (Morris, R. G. M., 1981)
Male C57 BL/6 mice, 30 g body weight. Minimum 50 animals. Obtainable from The Jackson Laboratories, Bar Harbor, Rt. 3, Me. 04609.
Circular water tank made of sturdy (10 mm thick, minimum) black (or very dark, opaque) lucite or other plastic. Diameter of the tank: 1 meter; Wall height: 50 cm. The tank must have a valve connected to a large diameter (min 1.5 cm inner) water filling/draining rubber hose (min. length 10 ft).
Two targets, one made of the same plastic as the water tank (the "black target"), and one made of translucent variety. Base made of heavy lucite (1 inch thick) shaped as a square with 10 inch sides. Height between the upper surface of the base and the lower surface of the target platform: 20 cm. Target platform support: 20 cm tall, circular rod (1 inch diam.). Circular target platform, 8 cm across, made of 0.5 cm thick plastic and covered with a non-skid material (surgical tape can be used) painted either black or white (depending on the target).
Regimen "A" consists of concurrent injections of either drug(s) or saline and swimming. Injections administered in a sequence: injection--24h--swim--2h--injection--24h--swim--2h--injection . . . etc., until a stable "time to target" plateau among the controls will be reached. […]

For the next data set, the target named is T1, M2 receptors (Rattus norvegicus, UniProt P10980).
T1 construct: from tissue; host or cells: rat brain
T1 sequence (P10980 1-466): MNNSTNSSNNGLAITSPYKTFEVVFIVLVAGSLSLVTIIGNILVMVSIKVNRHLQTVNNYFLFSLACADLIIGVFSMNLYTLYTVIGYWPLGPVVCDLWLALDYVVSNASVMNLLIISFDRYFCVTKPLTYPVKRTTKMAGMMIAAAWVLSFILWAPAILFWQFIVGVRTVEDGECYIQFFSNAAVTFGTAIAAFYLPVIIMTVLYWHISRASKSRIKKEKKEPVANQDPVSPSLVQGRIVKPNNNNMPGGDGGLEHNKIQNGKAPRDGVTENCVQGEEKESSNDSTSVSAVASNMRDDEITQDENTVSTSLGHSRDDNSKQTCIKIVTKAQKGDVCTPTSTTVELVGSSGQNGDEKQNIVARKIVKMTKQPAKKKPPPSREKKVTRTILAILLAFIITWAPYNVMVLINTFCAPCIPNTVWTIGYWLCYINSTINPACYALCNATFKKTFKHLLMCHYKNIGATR
As to the kind of experiment: inhibition of [^3 H]AF-DX-384 binding to M2 receptors in the rat brain. From the text: FIG. 5 is a graph of the inhibition of [^3 H]AF-DX-384 binding to M2 receptors in the rat brain by PDC008.004, determined as % specific [^3 H]AFDX 384 binding versus log [PDC008.004] in nM.

Data set [4] deals with muscarinic cholinergic receptor. The conditions noted are these: background statement; cited from earlier work.

With `CCN(CC)CCN(CC(=O)N1c2ccccc2C(=O)Nc2cccnc21)CC1CCCCC1` [PDC 008.004, 11-[[[2-(diethylamino)ethyl]cyclohexylmethylamino]-acetyl]-5,11-dihydro-6H-pyrido [2,3-b][1,4]-benzodiazepin-6-one], the “motor activity after a single injection” value in the data set on mice [1] (10 mg/kg, intraperitoneally, 24 hour period prior to behavioral testing) is “increased motor activity”. Also, in the data set with mice [1] (100 mg/kg intraperitoneally), the “signs observed in injected animals” value was “presence of dyskinesia, ataxia, and absence of flaccid paralysis”. In addition, the “penetration into the intracerebral space” value in the data set on mice [1] (inferred from very swift central cholinergic mediated events, intraperitoneal) is on record as “rapid penetration into the intracerebral space”. In addition, the “partition coefficient (log P)” value in data set [2] amounted to 0.78±0.18. Moreover, the “movement pattern change in watermaze” value with mice [3] (10 treated vs 10 control mice) is “substantial and significant (P>0.01) movement pattern change; also recorded: rapid shift from thygmotactic (wall-hugging) to center crossing and center crossing-goal oriented behavior”. Further, the “time required to find a hidden target (target latency) after the fourth trial” value with mice [3] (daily injections, mice) is on record as “substantial statistically significant (P<0.05) decrease”. Also, the Ki on M2 receptors was found to be 0.422 µM.
Turning to `CN1[C@@H]2C[C@@H](OC(=O)[C@H](CO)c3ccccc3)C[C@H]1[C@@H]1O[C@@H]12` [scopolamine], the “effect on memory function” value in data set [4] is “impair memory function”.
For `CCN(CC)CCN(CC(=O)N1c2ccccc2C(=O)Nc2cccnc21)CC1CCCCC1.Cl` [Compound 6, 11-[[[2-(Diethylamino)ethyl]cyclohexylmethylamino]-acetyl]-5,11-dihydro-6H-pyrido [2,3-b][1,4]-benzodiazepin-6-one hydrochloride salt], in data set [2], the “partition coefficient (log P)” value is on record as 0.16.
